Laboratory results taken from patent US11890274B2 (JMM LICENSING LLC, priority 2015, dated 2024).
Entries after “also recorded” stand apart in the source; their conditions may differ.

Assays:
[1] = test system: Human kidney clear cell carcinoma cell line Caki-I (HTB-46); test: 3H-thymidine uptake assay, renal cell carcinoma; format: cell-based; conditions: for Average Cpm / Cpm 1 / Cpm 2 / Cpm 3: Caki-I, 24 hours post treatment; for Average cpm: pilot plating
Procedure: Pilot plating experiments using Human kidney clear cell carcinoma cell line Caki-I (HTB-46). […] 0.1% DMSO, the test article solvent, in media was the control.
The cells were passaged onto 24-well plates at a concentration of 30,000 cells/well, in total medium volume of 1 mL (RPMI 1640+10% FBS+antibiotics). The cells were then allowed to attach and were incubated from 24 hours before treatment. Cells were then treated, in triplicate, with various concentrations of treatment articles.
^3H-thymidine (1 mCi/mL) was diluted to 1 μCi in 5 μL of medium (RPMI 1640+10%/FBS+antibiotics) and then added to each well at either 18- or 42-hr post treatment, for the 24- and 48-hr time points respectively.
Cells were then washed three times with 1 ML of DPBS at 24- or 48-hr post treatment to remove unincorporated ^3H-thymidine. Each well of cells was then lysed in 0.5 mL of 0.5N NaOH+0.5% SDS. Lysate was then transferred to scintillation tubes containing 1 mL if scintillation fluid for counting (3 min/sample).

[2] = cited from earlier work
[3] = test system: plaques, tangles, and cognitive defects; conditions: mice; given before the establishment of plaques and tangles in the brain; cited from earlier work
[4] = test system: Human breast adenocarcinoma cell line (MCF-7 (HTB-22)); test: 3H-thymidine uptake assay, breast cancer cell line; format: cell-based; conditions: for Average Cpm / Cpm 1 / Cpm 2 / Cpm 3 / dose proportionality of the effect alone, percent inhibition of 3H-uptake (FIG. 4): MCF-7; for Average Cpm / Cpm 1 / Cpm 2 / Cpm 3: 24 hours post treatment; for dose proportionality of the effect alone, percent inhibition of 3H-uptake (FIG. 4): drug alone at lower doses
Procedure: The cells were passaged onto 24-well plates at a concentration of 50,000 cells/well, in total medium volume of 1 mL (DMEM+10% FBS+0.01 mg/mL insulin+antibiotics). The cells were then allowed to attach and were incubated from 24 hours before treatment. Cells were then treated, in triplicate, with various concentrations of treatment articles. ^3H-thymidine (1 mCi/mL) was diluted to 1 μCi in 5 μL of medium (DMEM+10% FBS+0.01 mg/mL insulin+antibiotics) and then added to each well at 18-hr post treatment. […] Each well of cells was then lysed in 0.5 mL of 0.5N NaOH+0.5% SDS. Lysate was then transferred to scintillation tubes containing 1 mL if scintillation fluid for counting (3 min/sample).

## CN(Cc1cnc2nc(N)nc(N)c2n1)c1ccc(C(=O)N[C@@H](CCC(=O)O)C(=O)O)cc1 [Methotrexate, N-[4-[[(2,4-diamino-6-pteridinyl)methyl]methylamino]benzoyl]L-glutamic acid]
[1]; dosage 100 nM
  Average Cpm: 11414 cpm
  Cpm 1: 10636 cpm
  Cpm 2: 12192 cpm
  Cpm 3: 4932 cpm
[1]; 2.5 nm, 24-hr post treatment
  Average cpm: 30659 cpm
[1]; 2.5 nm, 48-hr post treatment
  Average cpm: 4811 cpm
[1]; 5 nm, 24-hr post treatment
  Average cpm: 31148 cpm
[1]; 5 nm, 48-hr post treatment
  Average cpm: 16772 cpm
[1]; 10 nm, 24-hr post treatment
  Average cpm: 27266 cpm
[1]; 10 nm, 48-hr post treatment
  Average cpm: 20251 cpm
[1]; 20 nm, 24-hr post treatment
  Average cpm: 26144 cpm
[1]; 20 nm, 48-hr post treatment
  Average cpm: 11273 cpm

## CO[C@H]1C[C@@H]2CC[C@@H](C)[C@@](O)(O2)C(=O)C(=O)N2CCCC[C@H]2C(=O)O[C@H]([C@H](C)C[C@@H]2CC[C@@H](O)[C@H](OC)C2)CC(=O)[C@H](C)/C=C(\C)[C@@H](O)[C@@H](OC)C(=O)[C@H](C)C[C@H](C)/C=C/C=C/C=C/1C [Rapamycin]
[2]; considered clinically relevant for current uses
  standard therapeutic serum trough levels: 5 to 20 ng/mL
[1]; dosage 1 nM
  Average Cpm: 10651 cpm
  Cpm 1: 10730 cpm
  Cpm 2: 9692 cpm
  Cpm 3: 11531 cpm
[1]; dosage 5 nM
  Average Cpm: 8758 cpm
  Cpm 1: 8771 cpm
  Cpm 2: 7473 cpm
  Cpm 3: 10030 cpm
[1]; dosage 10 nM
  Average Cpm: 9111 cpm
  Cpm 1: 9861 cpm
  Cpm 2: 8987 cpm
  Cpm 3: 8486 cpm
[1]; 5 nm, 24-hr post treatment
  Average cpm: 14805 cpm
[1]; 5 nm, 48-hr post treatment
  Average cpm: 8584 cpm
[1]; 10 nm, 24-hr post treatment
  Average cpm: 12611 cpm
[1]; 10 nm, 48-hr post treatment
  Average cpm: 7463 cpm
[1]; 20 nm, 24-hr post treatment
  Average cpm: 12044 cpm
[1]; 20 nm, 48-hr post treatment
  Average cpm: 6349 cpm
[3]
  effect on plaques, tangles, and cognitive defects: significantly reduce plaques, tangles, and cognitive defects
[4]; Homo sapiens, MCF7, read-out: inhibitory effect (percent inhibition of 3H-uptake), rapamycin alone at 0.5 nM
  inhibition at 0.0005 µM: 25%
[4]; Homo sapiens, MCF7, read-out: inhibitory effect (percent inhibition of 3H-uptake), rapamycin alone at 1.0 nM
  inhibition at 0.001 µM: 32%
[4]; dosage 0.1 nM
  Average Cpm: 1181 cpm
  Cpm 1: 1041 cpm
  Cpm 2: 1516 cpm
  Cpm 3: 986 cpm
[4]; dosage 0.5 nM
  Average Cpm: 2543 cpm
  Cpm 1: 2537 cpm
  Cpm 2: 2524 cpm
  Cpm 3: 2567 cpm
[4]; dosage 1 nM
  Average Cpm: 2294 cpm
  Cpm 1: 3114 cpm
  Cpm 2: 1220 cpm
  Cpm 3: 2548 cpm
[4]
  dose proportionality of the effect alone, percent inhibition of 3H-uptake (FIG. 4): not dose proportional; also recorded: not dose-proportional

## [H]/N=C(/N=C(N)N)N(C)C [Metformin, 1,1-Dimethylbiguanide]
[2]; standard dose
  standard dose therapeutic serum Cmax: 1-2 microgram/mL
[4]; dosage 0.05 nM
  Average Cpm: 1144 cpm
  Cpm 1: 1267 cpm
  Cpm 2: 1123 cpm
  Cpm 3: 1041 cpm
[4]; dosage 0.1 nM
  Average Cpm: 2092 cpm
  Cpm 1: 2238 cpm
  Cpm 2: 2595 cpm
  Cpm 3: 1444 cpm
[4]; dosage 0.5 nM
  Average Cpm: 1084 cpm
  Cpm 1: 1283 cpm
  Cpm 2: 1048 cpm
  Cpm 3: 921 cpm
[4]
  dose proportionality of the effect alone, percent inhibition of 3H-uptake (FIG. 4): not dose proportional; also recorded: not dose-proportional
